Experiments:
TNFα = assay: serum TNFα ELISA 24 h after zymosan injection; assay type: in vivo, mouse; details: 25 mg/kg, serum 24 h after zymosan
Method: Blood was collected 24 h after zymosan injection, and the sera were assayed for TNFα using a mouse TNFα ELISA kit (R&D Systems, Minneapolis, MN, USA), according to the manufacturer's instructions.

[1] = system: medial meniscal tear (MMT) post-traumatic OA; assay: rat medial meniscal tear (MMT) model, body weight and dynamic weight bearing; assay type: in vivo
Method: Initially, the required amount of HU308 dissolved in ethanol followed by addition of […] with vigorous mechanical agitation to form viscous micelle solution. Finally, the micelle solution was diluted in ice cold saline for injection or culture assays. Vehicle solution consisted of ethanol, cremophor and saline at 1:1:18 ratio. For intra-articular (IA) dosing 50 μL was injected into the tibiofemoral joint, at two doses; 8 and 24 μg/mL. Vehicle control contained 1:1:18 ethanol/Cremophor/saline, while positive control was of IA administered 60 μg/mL FGF-18 (R&D Systems, catalogue No. 8988-F18-050, lot No. BVE0521071) for IA dosing at 50 μL/knee.
(§1) The rat OA model employed was surgically-induced medial meniscal tear (MMT), wherein rats were anesthetized with Isoflurane (VetOne, catalogue No. 502017), and the right knee area was prepared for surgery. A skin incision was made over the medial aspect of the knee, and the medial collateral ligament was exposed by blunt dissection and then transected. The medial meniscus was cut through the full thickness to simulate a complete tear. Skin and subcutis were closed with 4-0 Coated Vicryl (polyglactin 910) Violet Braided Suture (Ethicon, catalogue No. J399H), and slight hand pressure was applied to the wound for approximately 3 minutes for hemostasis. Subcutaneous (SC) dose of buprenorphine (0.05 mg/kg) administered after the animal awakened post-surgery. Rats were weighed daily on study days −1 through 7 and again on days 14, 21, and 28 (prior to necropsy). […] The animals were euthanized for necropsy 28 days post-surgery, following Isoflurane anesthesia, and bled to exsanguination followed by bilateral pneumothorax.

[2] = system: medial meniscal tear (MMT) post-traumatic OA; assay: rat MMT model, histopathology of medial tibial joint 28 days post MMT; assay type: in vivo; details: for osteophyte measurements and scores: vs vehicle
Method: as §1
Right knees were collected from all animals and trimmed of muscle and patellae. The trimmed joints were placed in 10% neutral buffered formalin (NBF) for histologic processing and evaluation. Samples were fixed for 3 days in 4% paraformaldehyde and decalcified for 21 days in 10% EDTA, pH=7.5. Then following dehydration in a graded series of ethanol washes, joints were embedded in paraffin and sectioned to 7 μm slices, following trimming off 1 mm until the tibiofemoral compartments are fully observed. Sections were obtained from each knee and stained with toluidine blue (0.04% in 0.2 M acetate buffer, Ph=4.0), based on a modified version of the methods used in Schmitz, et al. (2010), (11). Histopathology was carried out using an ocular micrometer. The following structural histological characterization was carried out:
Regional differences across the tibial plateau were taken into consideration by dividing each section into three zones: (1) outside, (2) middle, and (3) inside. In the surgical OA model, the outside (zone-1) and middle (zone-2) thirds are most severely affected, and milder changes are present on the inside third (zone 3). When zones were scored individually, scores were assigned based on percent area of the zone affected. General cartilage degeneration including chondrocyte death/loss, proteoglycan (PG) loss, and collagen loss or fibrillation. Zones were scored individually (0-5; 5 representing sever damage; SD3), and a sum of all three zones was calculated (termed “Total Joint scores”).
The zone related cartilage depth is calculated from the projected articular surface tot the tidemark. Reduced ratios embody less detected cartilage width vs projected cartilage with area, per zone.
Osteophyte thickness (tidemark to furthest point extending toward synovium) was measured and scored according to a range from 0-5, as in SD4.
Damage to the calcified cartilage layer and subchondral bone was scored using the criteria in SD5. Generally damage was considered as invagination of deep zone cartilage into the subchondral bone layer.
[…] Descriptions of other changes (typically fibrosis, or acute inflammation/neutrophil infiltration extending into the lateral compartment usually associated with IA treatments) were also provided, if present.

`CCCCCCC(C)(C)c1cc(OC)c([C@]2(O)C3(C)CCC(C3)C2(C)C)c(OC)c1` (some centres unmarked) [Compound 1d, 2-(2,6′-dimethoxy-4′-(2″-methyloctan-2″-yl)phenyl)-1,3,3-trimethyl-bicyclo[2.2.1]heptan-2-ol] was tested, and the “levels of TNF-α” value (TNFα) was “reduced significantly”, the “dynamic weight bearing, left to right load bearing” value ([1]; 1D high dose 24 μg/mL IA) was “statistically insignificant levels vs sham and vehicle” and the “change in rat weight from 4 days to 28 days post MMT” value ([1]; 1D high dose 24 μg/mL IA, vs Vehicle and FGF18 groups) was “slight but significant increase”. For the same molecule, the “dynamic weight bearing, left to right load bearing” value ([1]; 1D low dose 8 μg/mL IA) was “increased left to right lad bearing vs sham”, the “mean zonal depth ratios” value ([2]; 1D high dose 24 μg/mL IA) was “reduced depth ratios” and the “zone 3 cartilage degeneration score” value ([2]; 1D high dose 24 μg/mL IA) was “less degeneration scores which were statistically significant”. The “total zonal cartilage degeneration scores” value ([2]; 1D high dose 24 μg/mL IA, vs 1D low dose and Vehicle) was “significantly reduced degenerative scores”, the “osteophyte measurements and scores” value ([2]; 1D high dose 24 μg/mL IA) was “didn't display any differences” and the synovitis scores ([2]; 1D low dose 8 μg/mL IA) was “higher”. The “zone 3 cartilage degeneration score” value ([2]; 1D low dose 8 μg/mL IA) was “less degeneration scores which were statistically significant” and the “osteophyte measurements and scores” value ([2]; 1D low dose 8 μg/mL IA) was “didn't display any differences”.

From US20250002435A1, “ARYLATED FENCHONE DERIVATIVES, COMPOSITIONS COMPRISING THEM, PROCESSES FOR THEIR PREPARATION AND USES THEREOF” (priority 2021, published 2025)
